# Measurements published in patent US8012963B2, “3,4-dihydro-2H-benzo[1,4]oxazine and thiazine derivatives as CETP inhibitors” (Janssen Pharmaceutica N.V., priority 2006, dated 2011).
# pIC50: −log10 of the molar value. “And” between values parts separate entries of the source, which are not always exact repeats. Equal entries are not always repeated.
# Biological target: T1, CETP (Homo sapiens, UniProt P11597)
# T1 construct: from tissue; host or cells: human plasma from normal volunteers
# T1 sequence (P11597 18-493): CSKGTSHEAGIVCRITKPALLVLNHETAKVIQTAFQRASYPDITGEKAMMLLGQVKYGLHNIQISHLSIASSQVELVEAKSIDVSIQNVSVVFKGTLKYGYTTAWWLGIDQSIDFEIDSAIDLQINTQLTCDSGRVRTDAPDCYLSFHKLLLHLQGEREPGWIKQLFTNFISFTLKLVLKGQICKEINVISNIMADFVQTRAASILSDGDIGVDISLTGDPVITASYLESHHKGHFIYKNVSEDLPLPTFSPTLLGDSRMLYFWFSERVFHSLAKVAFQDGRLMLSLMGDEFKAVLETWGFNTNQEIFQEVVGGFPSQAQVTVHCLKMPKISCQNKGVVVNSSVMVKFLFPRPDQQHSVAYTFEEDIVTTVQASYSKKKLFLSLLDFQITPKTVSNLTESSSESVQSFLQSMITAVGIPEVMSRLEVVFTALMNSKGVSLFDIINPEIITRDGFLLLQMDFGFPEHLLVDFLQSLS
# Assay: CETP in vitro assay ([3H]CE-HDL transfer, Amersham kit TRKQ7005; modified protocol in human plasma)
# Assay type: biochemical
# Details: multiple values = multiple measurements; for % Inhibition @ 1 μM / inhibition at 1 µM: 1 μM compound
# Procedure, shortened: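 Normal-volunteer human plasma was incubated ≥4 hr at 37 °C with approx. 25 μg/ml [3H]CE-HDL and compound in DMSO, with a 4 °C blank for non-specific transfer. HDL was separated by Dextralip/MgCl2 precipitation and centrifugation, then supernatant radioactivity counted. IC50 came from % control versus concentration.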
Structure (SMILES),% Inhibition @ 1 μM,inhibition at 1 µM [%],pIC50
"OCCCC1COc2c(-c3cccc(OC(F)(F)F)c3)cccc2N1CC(O)C(F)(F)F (stereo not drawn) [Compound 52, 3-[4-(3,3,3-Trifluoro-2-hydroxy-propyl)-8-(3-trifluoromethoxy-phenyl)-3,4-dihydro-2H-benzo[1,4]oxazin-3-yl]-propan-1-ol]",13%,,
"OCCCC1COc2c(-c3cccc(OC(F)(F)F)c3)cccc2N1CC(O)C(F)(F)F (stereo not drawn) [Compound 54, 3-[4-(3,3,3-Trifluoro-2-hydroxy-propyl)-8-(3-trifluoromethoxy-phenyl)-3,4-dihydro-2H-benzo[1,4]oxazin-3-yl]-propan-1-ol]",1%,,
COCCCC1COc2c(-c3cccc(OC(F)(F)F)c3)cccc2N1CC(O)C(F)(F)F (stereo not drawn) [Compound 55],,0,
"CC(C)(C)C(=O)CC1COc2c(-c3cccc(OC(F)(F)F)c3)cccc2N1CC(O)C(F)(F)F (stereo not drawn) [Compound 56, 3,3-Dimethyl-1-[4-(3,3,3-trifluoro-2-hydroxy-propyl)-8-(3-trifluoromethoxy-phenyl)-3,4-dihydro-2H-benzo[1,4]oxazin-3-yl]-butan-2-one]",9%,,
"CC(C)(C)C(=O)CC1COc2c(-c3cccc(OC(F)(F)F)c3)cccc2N1CC(O)C(F)(F)F (stereo not drawn) [Compound 57, 3,3-Dimethyl-1-[4-(3,3,3-trifluoro-2-hydroxy-propyl)-8-(3-trifluoromethoxy-phenyl)-3,4-dihydro-2H-benzo[1,4]oxazin-3-yl]-butan-2-one]",0%,,
"CCc1ccc(C2COc3c(-c4cccc(OC(F)(F)F)c4)cccc3N2CC(O)C(F)(F)F)s1 (stereo not drawn) [Compound 58, 3-[3-(5-Ethyl-thiophen-2-yl)-8-(3-trifluoromethoxy-phenyl)-2,3-dihydro-benzo[1,4]oxazin-4-yl]-1,1,1-trifluoro-propan-2-ol]",60% and 96%,,6.30
"CCc1ccc(C2COc3c(-c4cccc(OC(F)(F)F)c4)cccc3N2CC(O)C(F)(F)F)s1 (stereo not drawn) [Compound 59, 3-[3-(5-Ethyl-thiophen-2-yl)-8-(3-trifluoromethoxy-phenyl)-2,3-dihydro-benzo[1,4]oxazin-4-yl]-1,1,1-trifluoro-propan-2-ol]",0%,,
"COc1ccsc1C1COc2c(-c3cccc(OC(F)(F)F)c3)cccc2N1CC(O)C(F)(F)F (stereo not drawn) [Compound 60, 1,1,1-Trifluoro-3-[3-(3-methoxy-thiophen-2-yl)-8-(3-trifluoromethoxy-phenyl)-2,3-dihydro-benzo[1,4]oxazin-4-yl]-propan-2-ol]",0%,,
"COc1ccsc1C1COc2c(-c3cccc(OC(F)(F)F)c3)cccc2N1CC(O)C(F)(F)F (stereo not drawn) [Compound 61, 1,1,1-Trifluoro-3-[3-(3-methoxy-thiophen-2-yl)-8-(3-trifluoromethoxy-phenyl)-2,3-dihydro-benzo[1,4]oxazin-4-yl]-propan-2-ol]",3%,,
"COc1ccc(C2COc3c(-c4cccc(OC(F)(F)F)c4)cccc3N2CC(O)C(F)(F)F)s1 (stereo not drawn) [Compound 62, 1,1,1-Trifluoro-3-[3-(5-methoxy-thiophen-2-yl)-8-(3-trifluoromethoxy-phenyl)-2,3-dihydro-benzo[1,4]oxazin-4-yl]-propan-2-ol]",,19,
"COc1ccc(C2COc3c(-c4cccc(OC(F)(F)F)c4)cccc3N2CC(O)C(F)(F)F)s1 (stereo not drawn) [Compound 63, 1,1,1-Trifluoro-3-[3-(5-methoxy-thiophen-2-yl)-8-(3-trifluoromethoxy-phenyl)-2,3-dihydro-benzo[1,4]oxazin-4-yl]-propan-2-ol]",17%,,
"OC(CF)CN1c2cccc(-c3cccc(OC(F)(F)F)c3)c2OCC1c1cccc(OC(F)(F)C(F)F)c1 (stereo not drawn) [Compound 68, 1-Fluoro-3-[3-[3-(1,1,2,2-tetrafluoro-ethoxy)-phenyl]-8-(3-trifluoromethoxy-phenyl)-2,3-dihydro-benzo[1,4]oxazin-4-yl]-propan-2-ol]",79% and 91%,,6.90
"OC(CF)CN1c2cccc(-c3cccc(OC(F)(F)F)c3)c2OCC1c1cccc(OC(F)(F)C(F)F)c1 (stereo not drawn) [Compound 69, 1-Fluoro-3-[3-[3-(1,1,2,2-tetrafluoro-ethoxy)-phenyl]-8-(3-trifluoromethoxy-phenyl)-2,3-dihydro-benzo[1,4]oxazin-4-yl]-propan-2-ol]",50%,,
"OC(CN1c2cccc(-c3cccc(OC(F)(F)F)c3)c2OCC1c1cccc(C(F)(F)F)c1)C(F)(F)F (stereo not drawn) [Compound 70, 1,1,1-Trifluoro-3-[8-(3-trifluoromethoxy-phenyl)-3-(3-trifluoromethyl-phenyl)-2,3-dihydro-benzo[1,4]oxazin-4-yl]propan-2-ol]",37%,,
"O[C@@H](CN1c2cccc(-c3cc(F)c(F)c(F)c3)c2OC[C@@H]1c1cccc(OC(F)(F)C(F)F)c1)C(F)(F)F [Compound 76, 4H-1,4-Benzoxazine-4-ethanol, 2,3-dihydro-3-[3-(1,1,2,2-tetrafluoroethoxy)phenyl]-8-[3,4,5-trifluoro-phenyl]-α-(trifluoromethyl)-, (3S,αS)—]",101%,106,7.39

# Further lines, results first:
% Inhibition @ 1 μM,inhibition at 1 µM [%],pIC50,Structure (SMILES)
2%,,,"OC(CN1c2cccc(-c3cccc(OC(F)(F)F)c3)c2OCC1c1cccc(C(F)(F)F)c1)C(F)(F)F (stereo not drawn) [Compound 71, 1,1,1-Trifluoro-3-[8-(3-trifluoromethoxy-phenyl)-3-(3-trifluoromethyl-phenyl)-2,3-dihydro-benzo[1,4]oxazin-4-yl]-propan-2-ol]"
,100,7.30,"O[C@@H](CN1c2cccc(-c3cc(F)cc(F)c3)c2OC[C@@H]1c1cccc(OC(F)(F)C(F)F)c1)C(F)(F)F [Compound 72, 4H-1,4-Benzoxazine-4-ethanol, 8-(3,5-difluorophenyl)-2,3-dihydro-3-[3-(1,1,2,2-tetrafluoroethoxy)phenyl]-α-(trifluoromethyl)-, (3S,αS)—]"
,76,6.34,"O[C@H](CN1c2cccc(-c3cc(F)cc(F)c3)c2OC[C@@H]1c1cccc(OC(F)(F)C(F)F)c1)C(F)(F)F [Compound 73, 4H-1,4-Benzoxazine-4-ethanol, 8-(3,5-difluorophenyl)-2,3-dihydro-3-[3-(1,1,2,2-tetrafluoroethoxy)phenyl]-α-(trifluoromethyl)-, (3S,αR)—]"
82%,80,6.66,"O[C@H](CN1c2cccc(-c3cc(F)c(F)c(F)c3)c2OC[C@@H]1c1cccc(OC(F)(F)C(F)F)c1)C(F)(F)F [Compound 77, 4H-1,4-Benzoxazine-4-ethanol, 2,3-dihydro-3-[3-(1,1,2,2-tetrafluoroethoxy)phenyl]-8-[3,4,5-trifluoro-phenyl]-α-(trifluoromethyl)-, (3S,αR)—]"
62%,55,6.24,"O[C@@H](CN1c2cccc(-c3cc(C(F)(F)F)cc(C(F)(F)F)c3)c2OC[C@@H]1c1cccc(OC(F)(F)C(F)F)c1)C(F)(F)F [Compound 78, 4H-1,4-Benzoxazine-4-ethanol, 2,3-dihydro-3-[3-(1,1,2,2-tetrafluoroethoxy)phenyl]-8-[3,5-bis(trifluoromethyl)phenyl]-α-(trifluoromethyl)-, (3S,αS)—]"
40%,43,5.30,"O[C@H](CN1c2cccc(-c3cc(C(F)(F)F)cc(C(F)(F)F)c3)c2OC[C@@H]1c1cccc(OC(F)(F)C(F)F)c1)C(F)(F)F [Compound 79, 4H-1,4-Benzoxazine-4-ethanol, 2,3-dihydro-3-[3-(1,1,2,2-tetrafluoroethoxy)phenyl]-8-[3,5-bis(trifluoromethyl)phenyl]-α-(trifluoromethyl)-, (3S,αR)—]"
,100,6.71,"O[C@@H](CN1c2cccc(-c3cc(F)cc(F)c3)c2OC[C@@H]1c1cccc(OC(F)(F)F)c1)C(F)(F)F [Compound 80, 4H-1,4-Benzoxazine-4-ethanol, 2,3-dihydro-3-[3-(trifluoromethoxy)phenyl]-8-[3,5-(difluoro)phenyl]-α-(trifluoromethyl)-, (3S,αS)—]"
96%,91,7.03,"O[C@@H](CN1c2cccc(-c3cc(F)c(F)c(F)c3)c2OC[C@@H]1c1cccc(OC(F)(F)F)c1)C(F)(F)F [Compound 82, 4H-1,4-Benzoxazine-4-ethanol, 2,3-dihydro-3-[3-(trifluoromethoxy)phenyl]-8-[3,4,5-(trifluoro)phenyl]-α-(trifluoromethyl)-, (3S,αS)—]"
,29,,"O[C@H](CN1c2cccc(-c3cc(F)c(F)c(F)c3)c2OC[C@@H]1c1cccc(OC(F)(F)F)c1)C(F)(F)F [Compound 83, 4H-1,4-Benzoxazine-4-ethanol, 2,3-dihydro-3-[3-(trifluoromethoxy)phenyl]-8-[3,4,5-(trifluoro)phenyl]-α-(trifluoromethyl)-, (3S,αR)—]"
87%,84,7.00 and 6.80,"CC(C)C(O)CN1c2cccc(-c3cccc(OC(F)(F)F)c3)c2OCC1c1cccc(OC(F)(F)C(F)F)c1 (stereo not drawn) [Compound 84, 3-Methyl-1-[3-[3-(1,1,2,2-tetrafluoro-ethoxy)-phenyl]-8-(3-trifluoromethoxy-phenyl)-2,3-dihydro-benzo[1,4]oxazin-4-yl]-butan-2-ol]"
